From article PMC7406649, “The rare sugar D-tagatose protects plants from downy mildews and is a safe fungicidal agrochemical” (Communications Biology, 2020)

Legend:
Assay type in all cases: biochemical
[1] = biological target: T1, phosphomannose isomerase (LC500563) (Hyaloperonospora arabidopsidis, UniProt A0A7G1GEM8); test: HPLC of ABEE-labelled products; conditions: 2.5 mM substrate, 10 mM MgCl2, pH 7.4, 30 °C, 6 h; products D-glucose 6-phosphate and D-mannose 6-phosphate
T1 construct: coding region in pColdI, His tag kept (45 kDa), expressed in E. coli SHuffle Express, HisTrap purified; equivalent to Hpa802576 of isolate Emoy2
T1 sequence (A0A7G1GEM8 1-415): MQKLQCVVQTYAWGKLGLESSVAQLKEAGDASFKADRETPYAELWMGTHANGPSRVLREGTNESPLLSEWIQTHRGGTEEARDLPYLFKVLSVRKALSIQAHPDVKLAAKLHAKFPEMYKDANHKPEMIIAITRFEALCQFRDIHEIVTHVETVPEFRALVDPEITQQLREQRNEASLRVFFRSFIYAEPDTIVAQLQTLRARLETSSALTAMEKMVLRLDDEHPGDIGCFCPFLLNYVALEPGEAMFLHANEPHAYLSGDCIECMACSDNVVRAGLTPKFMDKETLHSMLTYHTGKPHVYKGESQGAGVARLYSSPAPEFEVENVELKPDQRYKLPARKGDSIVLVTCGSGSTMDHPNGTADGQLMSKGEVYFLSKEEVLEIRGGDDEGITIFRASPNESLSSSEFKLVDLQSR

[2] = biological target: T1, phosphomannose isomerase (LC500563); test: HPLC of ABEE-labelled products; D-mannose 6-phosphate formation; conditions: read-out: % inhibition at 37.5 mM
[3] = biological target: T1, phosphomannose isomerase (LC500563); test: HPLC of ABEE-labelled products; D-glucose 6-phosphate formation; conditions: read-out: % inhibition at 37.5 mM
fructokinase (LC500344) = biological target: T2, fructokinase (LC500344) (Hyaloperonospora arabidopsidis, UniProt A0A7G1GEU5); test: Dixon plot; coupled pyruvate kinase/lactate dehydrogenase NADH assay at […] nm; conditions: competitive with D-fructose (0.5-2.5 mM); 10-250 mM D-tagatose; 4 mM ATP, 8 mM MgCl2, pH 7.5, 25 °C; D-tagatose is also a substrate
T2 construct: coding region in pGEX5X-1, N-terminal GST tag kept (58 kDa with tag), expressed in E. coli SoluBL21, GSTrap purified; equivalent to Hpa812304 of isolate Emoy2
T2 sequence (A0A7G1GEU5 1-297): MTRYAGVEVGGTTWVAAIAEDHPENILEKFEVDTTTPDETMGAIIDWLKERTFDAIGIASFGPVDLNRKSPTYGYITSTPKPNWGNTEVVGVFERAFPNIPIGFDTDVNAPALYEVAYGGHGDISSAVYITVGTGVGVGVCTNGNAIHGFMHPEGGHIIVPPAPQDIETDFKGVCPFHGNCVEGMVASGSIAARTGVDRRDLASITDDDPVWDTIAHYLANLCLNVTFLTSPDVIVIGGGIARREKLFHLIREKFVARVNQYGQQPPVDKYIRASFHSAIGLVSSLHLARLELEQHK

O=P(O)(O)OC[C@H]1OC(O)(CO)[C@@H](O)[C@@H]1O (stereo partly drawn) [D-fructose 6-phosphate]
HPLC of ABEE-labelled products [1]: both D-glucose 6-phosphate and D-mannose 6-phosphate were detected after the addition of D-fructose 6-phosphate

O=P(O)(O)OC[C@H]1OC(O)(CO)[C@@H](O)[C@H]1O (stereo partly drawn) [D-tagatose 6-phosphate]
inhibition at 37500 µM [2]: 60.8%
inhibition at 37500 µM [3]: 38.2%

OCC1(O)OC[C@@H](O)[C@H](O)[C@@H]1O (stereo partly drawn) [D-tagatose]
Ki (fructokinase (LC500344)): 70 ± 5.14 mM
